In patent US8012944B2, “Method for treating cancer using IAP antisense oligomer and chemotherapeutic agent” (Pharmascience Inc., priority 2003, dated 2011):
d = 2'-deoxy (DNA); m = 2'-O-methyl

Columns and labels:
Type in all cases: cell-based, human
XIAP mRNA [1] = test: XIAP mRNA knock-down in H460 cells (real-time RT-PCR / TaqMan); conditions: 2 × 2 MBO; NCI-H460 cells, 9 hours post-transfection; relative level (mock control 1.01)
[2] = tested on: T24 bladder carcinoma cells; test: Total cellular protein in transfected T24 cells; conditions: first screen
Procedure: (§1) At day 3, XIAP RNA levels were measured using quantitative real-time PCR techniques, as described above. At day 4, XIAP protein levels were measured by ELISA (FIGS. 1A, 1C, 1E, 1G, 1I, and 1K), and total cellular protein was measured biochemically (FIGS. 1B, 1D, 1F, 1H, 1J, and 1L; used to normalize the XIAP protein levels). The results were compared to a mock transfection sample (treated with the transfection agent but no oligonucleotide DNA was added, and then processed as for the other samples). Time course experiments determined that the optimal time for protein knock-down to be around 12 to 24 hours.
These nucleobase oligomers were also examined for their ability to decrease XIAP mRNA levels at 12 hours, normalized against GAPDH levels, and compared to mock transfection. Total protein concentrations at 12 hours were also determined (FIG. 2C).

XIAP protein = XIAP protein knock-down in T24 cells (XIAP ELISA, relative to total protein); conditions: for XIAP protein levels relative to total protein, compared to mock transfection (in words): first screen of the library
Source text: (§2) We used TaqMan quantitative PCR (described below) to assay for changes in mRNA levels after oligonucleotide treatment. We employed ELISA for determining XIAP protein levels and western blotting for determining HIAP1 protein levels. Transfection conditions were optimized with Lipofectamine plus or Lipofectamine 2000 (Life Technologies, Canada) on T24 bladder carcinoma cells or H460 non-small cell lung carcinoma cells, or lipofectin on SF-295 glioblastoma cells, using a fluorescein-tagged sense oligonucleotide (5′-mGmAGAAGATGACTGGTAAmCmA-3′; SEQ ID NO: 261) from XIAP spanning the start codon as a control. The results were visualized and gauged by epi-fluorescence microscopy. In the case of T24 cells, transfections were further optimized based on the ability of a published oligonucleotide to downregulate survivin expression (Li et al., Nat. Cell Biol. 1:461-466, 1999) (5′-U/TGTGCTATTCTGTGAAU/TU/T-3′ SEQ ID NO: 262). We optimized the transfection conditions based on the TaqMan results of survivin RNA knock-down detected with PCR primers and fluorescent probe, described in detail below. […] We then applied these conditions to screen for XIAP protein knock-down using the oligo library against T24 cells.
A standard colorimetric XIAP ELISA assay was performed using an affinity-purified rabbit polyclonal antibody to XIAP as a capture antibody, and was detected with a XIAP monoclonal antibody (MBL, Japan) and a biotinylated anti-mouse Ig antibody and horseradish peroxidase-conjugated streptavidin and TMB substrate. Alternatively, a polyclonal XIAP or HIAP1 antibody may be used to measure XIAP or HIAP1 protein levels, respectively.
The XIAP synthetic library of 96 antisense oligonucleotides was first screened for decreases in XIAP protein levels. Specifically, T24 cells (1.5×10^4 cells/well) were seeded in wells of a 96-well plate on day 1, and were cultured in antibiotic-free McCoy's medium for 24 hours. On day 2, the cells were transfected with XIAP antisense oligonucleotides as described above (oligonucleotides are labeled according to their plated position, i.e., A1 to H12, and include two repeats, A13 and B13 that contain lyophilized DNA pellets that stuck to the sealing membrane). Briefly, the nucleobase oligomers were diluted in 10 μl/well of serum-free, antibiotic-free McCoy's medium and then PLUS reagent was added. Lipofectamine was diluted in 10 μl/well of serum-free, antibiotic-free McCoy's medium, and both mixes were incubated for 15 minutes at room temperature. The mixes were then combined and incubated for 15 minutes at room temperature.
In the meantime, the complete medium was removed from the cells and 50 μl/well of serum-free, antibiotic-free medium was added to the cells. The transfection mixes were added to the well, and the cells were incubated for three hours. Then 30 μl/well of serum-free, antibiotic-free medium and 100 μl/well of antibiotic-free complete medium, containing 20% fetal bovine serum were added to each well.
as §1, with “hours. […]” for “hours.”

XIAP mRNA [3] = test: XIAP mRNA knock-down in H460 cells (real-time RT-PCR / TaqMan)
Method in brief: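 NCI-H460 cells transfected with phosphorothioate antisense oligonucleotides via Lipofectamine 2000; RNA isolated after 6 h treatment. XIAP mRNA quantified by one-step TaqMan real-time RT-PCR, comparative Ct (threshold 30× baseline SD), normalized to GAPDH and expressed relative to untreated control cells.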

[4] = tested on: T24 bladder carcinoma cells; test: T24 cell viability and chemosensitization (WST-1 tetrazolium dye assay); conditions: adriamycin 0.5 μg/ml for 20 hours after transfection, vs oligonucleotide alone
Procedure: T24 cells were transfected with XIAP antisense oligonucleotides, scrambled oligonucleotides, no oligonucleotides (mock transfected), or were left untreated. The cells were tested for viability 20 hours after transfection (with the exception of the untreated control) using the WST-1 tetrazolium dye assay in which WST-1 tetrazolium dye is reduced to a colored formazan product in metabolically active cells (FIG. 5A).
To examine the effects of the nucleobase oligomers on the chemosensitization of the T24 cells to cisplatin or adriamycin, oligonucleotides were tested for their ability to further kill T24 cells in the presence of a fixed dose of adriamycin (0.5 μg/ml). Cells were first transfected with a oligonucleotide, then adriamycin was added for another 20 hours. Viability was measured by WST-1 at the end of the 20-hour drug treatment (FIG. 5B). Results are shown in FIG. 5C as percentage viability compared to nucleobase oligomer treatment alone.

XIAP RNA = XIAP RNA knock-down in T24 cells (TaqMan quantitative PCR)
Source text: as §2
RNA was extracted from cells lysed in RLT buffer (QIAGEN, Valencia, Calif.), and purified using QIAGEN RNeasy columns/kits. Real-time quantitative PCR was performed on a Perkin-Elmer ABI 7700 Prism PCR machine. RNA was reverse transcribed and amplified according to the TaqMan Universal PCR Master Mix protocol of PE Biosystems, using primers and probes designed to specifically recognize XIAP, HIAP1, survivin, or GAPDH. For human survivin, the forward primer was 5′-[…]-3′ (SEQ ID NO: 263), the reverse primer was 5′-GAAAGGAAAGCGCAACCG-3′ (SEQ ID NO: 264), and the probe was 5′-(FAM)[…](TAMRA)-3′ (SEQ ID NO: 265). For human HIAP1, the forward primer was 5′-[…]-3′ (SEQ ID NO: 266), the reverse primer was 5′-[…]-3′ (SEQ ID NO: 267), and the probe was 5′-(FAM)[…](TAMRA)-3′ (SEQ ID NO: 268). For human XIAP, the forward primer was 5′-[…]-3′ (SEQ ID NO: 269), the reverse primer was 5′-[…]-3′ (SEQ ID NO: 270), and the probe was 5′-(FAM)[…](TAMRA)-3′ (SEQ ID NO: 271). For human GAPDH, the forward primer was 5′-GAAGGTGAAGGTCGGAGTC-3′ (SEQ ID NO: 272), the reverse primer was 5′-GAAGATGGTGATGGGATTC-3′ (SEQ ID NO: 273), and the probe was 5′-(JOE)[…](TAMRA)-3′ (SEQ ID NO: 274). FAM is 6-carboxyfluoroscein, JOE is 6-carboxy-4,5-dichloro-2,7-dimethoxyfluoroscein, and TAMRA is 6-carboxy-N,N,N′,N′-tetramethylrhodamine. FAM and JOE are 5′ reporter dyes, while TAMRA is a 3′ quencher dye.
Relative quantification of gene expression was performed as described in the PE Biosystems manual using GAPDH as an internal standard. The comparative Ct (cycle threshold) method was used for relative quantitation of IAP mRNA levels compared to GAPDH mRNA levels. Briefly, real-time fluorescence measurements were taken at each PCR cycle and the threshold cycle (Ct) value for each sample was calculated by determining the point at which fluorescence exceeded a threshold limit of 30 times the baseline standard deviation. The average baseline value and the baseline SD are calculated starting from the third cycle baseline value and stopping at the baseline value three cycles before the signal starts to exponentially rise. The PCR primers and/or probes for the specific IAPs were designed to span at least one exon-intron boundary separated by 1 kb or more of genomic DNA, to reduce the possibility of amplifying and detecting genomic DNA contamination. The specificity of the signal, and possible contamination from DNA, were verified by treating some RNA samples with either DNase or RNase, prior to performing the reverse transcription and PCR reaction steps.
The XIAP synthetic library of 96 antisense oligonucleotides was first screened for decreases in XIAP protein levels. […]

| Sequence | XIAP RNA (XIAP mRNA [1]) | total protein (toxic or cytostatic effect) [2] | XIAP protein levels relative to total protein, compared to mock transfection (in words) (XIAP protein) | XIAP down-regulation H460 RNA (XIAP mRNA [3]) [%] | further drop in survival with adriamycin [4] [%] | XIAP down-regulation T24 RNA (XIAP RNA) [%] | XIAP down-regulation T24 protein (XIAP protein) [%] |
| --- | --- | --- | --- | --- | --- | --- | --- |
| AGTTAAATGAATATTGTTT (antisense; sugars from the 5' end m2 d15 m2, backbone and T or U not given here; further chemistry not fully specified) [Code B9] | 0.74 | clear drop | no relative drop | 38 |  |  |  |
| ATCTTCTCTTGAAAATAGG (sugars from the 5' end m2 d15 m2, linkages s1 o16 s1 (s phosphorothioate, o phosphodiester), T or U not given here) [Code F3] |  |  | some decrease |  | 40 | 44 | 53 |
| GACACTCCTCAAGTGAATG (antisense; sugars from the 5' end m2 d15 m2, backbone, methylation of C and T or U not given here; further chemistry not fully specified) [Code C9] |  | clear drop | no relative drop |  |  |  |  |
| GATTCACTTCGAATATTAA (sugars from the 5' end m2 d15 m2, linkages s1 o16 s1 (s phosphorothioate, o phosphodiester), methylation of C not given here) [Code D7] |  |  | some decrease | 46 | 40 | 56 | 88 |
